Where two headings read alike, the source gives them in different places.
Columns and labels:
[1] = target: T1, recombinant MMP-9 (Homo sapiens, UniProt P14780); assay: Enzyme cleavage assay of albumin reacted maleimide peptide; type: biochemical; details: 50 nM MMP-9
T1 construct: purchased EMD Biosciences
Experimental: (§1) Maleimide peptides were initially reacted with mouse serum albumin (Sigma) at 40 mg/mL or fresh frozen mouse plasma for one hour. Samples were run on a tricine buffered 10-20% polyacrylamide gel and imaged for Cy5 fluorescence on a UVP gel imager. For the enzyme cleavage assay, Cy5-monomaleimide and the cleavable maleimide peptides were reacted as 2 nmol with mouse serum albumin at 40 mg/mL in 25 mM hepes buffer. The stock was then diluted 1:[…] with 50 nM of recombinant MMP-9 (EMD Biosciences) and digested for 20 minutes and 4 hours then run on a tricine gel and imaged by Cy5.
(§2) Malemide selective transport molecule was reacted mouse serum albumin and plasma in aqueous conditions to determine that peptide reacts with albumin in a test tube. […] Plasma seemed to give somewhat more complete reaction.

[2] = target: T2, mouse serum albumin (Mus musculus, UniProt P07724); assay: Reaction of maleimide peptide with albumin; details: within an hour of mixing, PAGE
T2 construct: Albumin reactive selective transport molecules create a robust reaction with native albumin; purchased Sigma
Experimental: as §1, §2

[3] = test system: HT1080 human fibrosarcoma; assay: Optical imaging of albumin reactive peptides in HT1080 tumor bearing mice; type: in vivo; details: 3 nmols IV, 24 hours
Experimental: (§3) Nude mice were injected with 2×^06HT1080 human fibrosarcoma cells in the left #2 mammary fat pad. Experiments were performed 5-7 days post injection. Polyoma Middle T mice (PyMT) were provided by Lesley Ellies and they were injected with peptide IV between 9-12 wks of age when medium to large sized tumors were present in each mammary fat pad. One million mouse mammary adenocarcinoma 4T1.2 cells (from Robyn Anderson, University of Melbourne) were injected into the left mammary fat pad of nude mice (FIGS. 4 and 7) and Balb/c mice (FIGS. 8 and 9) and 5-20 days later were injected with peptide and imaged.
(§4) When tumors were of sufficient size 5-20 days after injection of tumor cells the peptide was injected IV and imaged on the Maestro small animal imager (CRI). Animals were sacrificed by overdose with Isoflurane and dissected. To examine lung metastases, the lungs were inflated with OCT cryoprotectant and imaged on the small animal imager. Blood measurements were taken by bleeding the tail vein at a specified time point and collected in a capillary tube. The tubes were then imaged for presence of the Cy5 fluorescent peptide using the small animal imager. For processing of tissues for gels, 30 mg of tissue was homogenized in a 1% SDS Tris buffer then heated at 80° C. for 10 min and centrifuged. The supernatant was then diluted 1:10 and run on a tricine gel and imaged by fluorescence. […]

[4] = test system: HT1080 human fibrosarcoma; details: for toxicity: 44 μmol/kg
Experimental: A selective transport molecule-Podophyllotoxin (selective transport molecule-podo) conjugate by reacting podo-ss-pyridine with Suc-e8-xPLGLAG-r9-c, purified by HPLC and confirmed by mass spectrometry. The peptide was stored as a TFA salt and the yield was determined by mass. For animal experiments, athymic nude mice were injected with 1×0^6HT1080 human fibrosarcoma cells in the mammary fat pad. After one week when tumors were 30-50 mm^3 mice were injected IP once every other day for a total of three times with 10 μmol/kg of either podophyllotoxin, selective transport molecule alone, or selective transport molecule-podo.
(§5) Therefore we synthesized Suc-e8-xPLGLAG-r9-c(ss-podophyllotoxin) to test in cell culture. […] In order to decide upon a starting dose, we tested podophyllotoxin by itself to determine the effective dose for shrinking tumors.
Three mice in each treatment group were injected with 3 doses, one dose every other day.

[5] = test system: cells; assay: Toxicity of podophyllotoxin conjugate in cell culture; type: cell-based
Excerpt: as §5

[6] = test system: HT-1080 tumor bearing nude / transgenic PyMT mice; details: mouse, in vivo
Experimental: Animals expressing the polyoma middle T transgene (PyMT) driven by the MMTV promoter were obtained from Lesley Ellies. Nude animals bearing HT-1080 xenografts were either generated in house or were obtained from Explora Biosciences. Either way, tumors were used once they reached a diameter of […]. Animals were anesthetized with ketamine/midazolam (80 mg/kg, 40 mg/kg) and injected with the indicated construct through the tail vein Animals were typically observed throughout the first hour as they woke up from anesthesia. They were re-anesthetized and imaged at six hours, 12 hours, 24 hours and 48 hours as needed. After the last imaging session, animals were sacrificed by overdose of halothane. The imaging system used evolved over time. For most of the PEGylated conjugates, a simple light box was used, though the image shown is one of the first taken with the Maestro spectral deconvolution imager. The albumin, dextran and PAMAM dendrimer conjugates were tested using a 620/20 excitation filter and collecting images at 680 nm. The streptavidin conjugates were tested using a 640/48 excitation filter, with images collected at 700 nm.
Standardized Uptake Values were initially measured without tissue specific calibrations and were later re-adjusted to take tissue specificity and a light source change into account. […]

[7] = mouse, in vivo
Experimental: Peptides conjugated to 5 kD PEG and 12 kD PEG were injected into nude mice bearing HT-1080 xenografts at a dose of 6 nmoles per animal (FIG. 24). […] As controls, a scrambled version of the PLGLAG (SEQ ID NO: 1) cleavable sequence denoted as LALGPG (SEQ ID NO: 48) and a d-amino acid version of the PLGLAG (SEQ ID NO: 1) sequence denoted as plglag were also injected. […] Because of what was what was available at the time, the polyoma transgenic mice were tested in wildtype and iNOS−/− backgrounds.
As the last molecule in the large molecular weight carrier series, 1725 was a fifth generation PAMAM dendrimer conjugated to two MMP cleavable selective transport molecules. The remaining 126 attachment sites were capped with succinyl groups. […] This molecule was injected into both HT-1080 tumor bearing nude transgenic PyMT mice at varying concentrations.

[8] = test system: HT1080 tumor; assay: Doxorubicin conjugated dendrimers in HT1080 tumor bearing mice; type: in vivo; details: single dose
Experimental: In multiple experiments, HT1080 bearing nude mice were injected with a single specific dose of doxorubicin dendrimer. […] Mouse weights and tumor volumes were measured regularly. For the urea and the Peg hydrazone dendrimers, mice were imaged spectrally 7 days after injection. Using the Maestro (CRI) spectral deconvolution system and software, doxorubicin fluorescence (red) was separated out from autofluorescence (green). Tumors were removed and imaged by spectral deconvolution and brightfield. For aromatic and thioether dendrimers there were 4 mice for each treatment group but only 2 mice for the urea and Peg hydrazone dendrimers because of limited dendrimer synthesis yields.

[9] = test system: 4T1.2 tumor; assay: Plasma pre-reaction of maleimide peptide, blood levels and tumor fluorescence; type: in vivo, mice; details: 48 hours
Experimental: as §3, §4

[10] = test system: HT1080 human fibrosarcoma; details: 48-100 μmol/kg after multiple doses; cited from earlier work
[11] = 10 μmol/kg IP, 3 doses, one every other day

T2 sequence (P07724 25-608): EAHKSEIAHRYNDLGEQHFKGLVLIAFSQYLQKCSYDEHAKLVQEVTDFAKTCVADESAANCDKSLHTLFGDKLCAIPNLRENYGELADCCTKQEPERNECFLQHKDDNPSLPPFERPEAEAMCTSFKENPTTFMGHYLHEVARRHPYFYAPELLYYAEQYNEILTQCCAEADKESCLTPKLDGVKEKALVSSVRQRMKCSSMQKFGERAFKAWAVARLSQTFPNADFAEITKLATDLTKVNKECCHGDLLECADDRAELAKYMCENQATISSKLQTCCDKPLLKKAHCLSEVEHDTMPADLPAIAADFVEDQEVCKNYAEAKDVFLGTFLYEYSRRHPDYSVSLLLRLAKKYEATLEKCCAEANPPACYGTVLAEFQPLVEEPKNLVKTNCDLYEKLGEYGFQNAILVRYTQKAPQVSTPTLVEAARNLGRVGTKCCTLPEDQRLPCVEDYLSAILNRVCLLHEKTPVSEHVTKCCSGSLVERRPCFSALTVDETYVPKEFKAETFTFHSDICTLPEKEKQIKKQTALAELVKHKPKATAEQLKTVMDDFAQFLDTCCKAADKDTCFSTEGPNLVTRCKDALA
T1 sequence (P14780 94-707, species assumed): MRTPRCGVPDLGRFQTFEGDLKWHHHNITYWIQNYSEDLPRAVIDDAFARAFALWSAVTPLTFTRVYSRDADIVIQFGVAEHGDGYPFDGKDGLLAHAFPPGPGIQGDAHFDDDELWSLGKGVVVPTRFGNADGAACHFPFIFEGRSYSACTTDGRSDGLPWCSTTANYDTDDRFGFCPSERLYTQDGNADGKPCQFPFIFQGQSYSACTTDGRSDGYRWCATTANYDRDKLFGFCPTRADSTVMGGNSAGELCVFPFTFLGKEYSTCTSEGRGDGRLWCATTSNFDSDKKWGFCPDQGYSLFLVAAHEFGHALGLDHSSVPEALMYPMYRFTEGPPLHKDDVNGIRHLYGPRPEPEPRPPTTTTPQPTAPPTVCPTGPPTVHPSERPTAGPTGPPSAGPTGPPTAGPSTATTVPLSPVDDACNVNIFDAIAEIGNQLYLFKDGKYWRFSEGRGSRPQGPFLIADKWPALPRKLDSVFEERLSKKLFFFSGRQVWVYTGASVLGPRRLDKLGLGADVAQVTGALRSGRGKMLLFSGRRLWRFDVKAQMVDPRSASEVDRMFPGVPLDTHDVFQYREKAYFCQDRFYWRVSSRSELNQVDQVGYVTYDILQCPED

mal-e9-oPLG(Cme)AG-r9-c(cy5)
time to near complete cleavage off albumin [1]: less than 4 hours | reaction with mouse serum albumin or plasma [2]: most of the peptide reacted with MSA or plasma albumin | tumor uptake (Cy5 fluorescence) [3]: much greater with the cleavable peptide compared to the uncleavable peptide

Suc-e8-xPLGLAG-r9-c(ss-podophyllotoxin) [selective transport molecule-podo]
body weight ([4]; 10 μmol/kg IP, 3 doses): lost significant weight | effect on tumor growth [4, 11]: modest slowing of growth | toxicity [4]: acutely toxic | toxicity on cells [5]: submicromolar toxicity

G5PAMAM-[e9-XPLGLAG-r9-k(cy5)][PEG]127 [G5PAMAM-[e9-XPLGLAG-r9-k(cy5)] [PEG]127]
tumor uptake relative to PLGLAX dendrimer [6]: decreased tumor uptake

Streptavidin-[e9-XPLGLAG-r9-k(cy5)]4
Approx Plasma Halflife [7]: ~4 h

Generation 5 PAMAM-(e9-XPLGLAX-r9-k(cy5))2(succ)126
blood halflife, first phase (biphasic) [7]: under 10 minutes | blood halflife, second phase (biphasic) [7]: 10 to 15 h

G5-PAMAM-[e9-XPLGLAX-r9-k(cy5)]2[PEG]126
Approx Plasma Halflife [7]: ~20 h | blood halflife [7]: over 10 hours

COc1cccc2c1C(=O)c1c(O)c3c(c(O)c1C2=O)C[C@@](O)(C(=O)CO)C[C@@H]3O[C@H]1C[C@H](N)[C@H](O)[C@H](C)O1 [doxorubicin]
anti-tumor activity (qualitative) [8]: continually beat the dendrimers in anti-tumor activity

G5PAMAM-[e9-OPLG(MeC)AG-r9-k(cy5)][PEG]127]
liver uptake relative to PLGLAX dendrimer [6]: decrease by a factor of two

Cy5-monomaleimide
tumor fluorescence / uptake [9]: significantly less fluorescence

12kD-PEG-e9-XPLGLAG-r9-k(cy5)
Approx Plasma Halflife [7]: ~20 m | blood halflife [7]: approximately 20 minutes

COc1cc([C@@H]2c3cc4c(cc3[C@H](O)[C@H]3COC(=O)[C@H]23)OCO4)cc(OC)c1OC [podophyllotoxin, reference compound]
effect on tumor growth [4, 11]: not efficacious | effect on tumor growth ([4]; 10 μmol/kg IP, 3 doses, one every other day, listed as Podo): no therapeutic activity or toxicity | toxicity [4]: no obvious signs of toxicity | effect on tumor growth ([4]; 3 injections at 44 μmol/kg every other day): sufficient to significantly slow tumor growth but not provide a cure | toxicity (literature) [10]: minimal toxicity

Suc-e8-xPLGLAG-r9-c(Cy5)
tumor uptake (Cy5 fluorescence) [3]: difficult to detect

From US9682151B2, “Peptides whose uptake in cells is controllable” (The Regents of the University of California, priority 2009, dated 2017)
